Data: US9511058B2, “Methods for using carboxamide, sulfonamide and amine compounds” (Rigel Pharmaceuticals, Inc., priority 2010, dated 2016)
Blank lines part the entries; values can stand above or below the compound they belong to.

Molecular target: AMPK
Experiment: AMPK activation, enzyme-linked immunosorbent assay
Type: biochemical
[1] = compounds of Table 5 (Table 10)

- EC50 (compounds of Table 1 (Table 6)): 100 to 500 nM
SMILES: O=C(NC1CCN(Cc2cncnc2)CC1)c1ccc(OC2CCN(c3ccc(C(F)(F)F)cc3)CC2)cn1 [1-44, N-(1-(pyrimidin-5-ylmethyl)piperidin-4-yl)-5-(1-(4-(trifluoromethyl)phenyl)piperidin-4-yloxy)picolinamide]

- EC50 [1]: < 1000 nM
SMILES: N#Cc1ccc(CN2CCC(Oc3ccc(C(=O)NC4CCN(Cc5ccccc5)CC4)c(Cl)c3)CC2)cc1 [5-51, N-(1-benzylpiperidin-4-yl)-2-chloro-4-(1-(4-cyanobenzyl)piperidin-4-yloxy)benzamide]

- EC50 [1]: < 1000 nM
SMILES: CC(C)(C)c1ccc(CN2CCC(Oc3ccc(C(=O)NC4CCN(Cc5ccccc5)CC4)cc3F)CC2)cc1 [5-20, N-(1-benzylpiperidin-4-yl)-3-fluoro-4-(1-(4-tert-butylbenzyl)piperidin-4-yloxy)benzamide]

- EC50 (compounds of Table 1 (Table 6)): > 10000 nM
SMILES: O=C(NC1CCNCC1)c1sc2cc(OC3CCN(c4ccc(C(F)(F)F)cc4)CC3)ccc2c1Cl [1-148, 3-chloro-N-(piperidin-4-yl)-6-(1-(4-(trifluoromethyl)phenyl)piperidin-4-yloxy)benzo[b]thiophene-2-carboxamide]

- EC50 (compounds of Table 3 (Table 8)): 1000 to 10000 nM
SMILES: CC(C)(C)OC(=O)N1CCC(Oc2ncc(C(=O)NC3CCN(Cc4ccc(C#N)cc4)CC3)s2)CC1 [3-26, tert-butyl 4-(5-(1-(4-cyanobenzyl)piperidin-4-ylcarbamoyl)thiazol-2-yloxy)piperidine-1-carboxylate]

- EC50 (compounds of Table 1 (Table 6)): 100 to 500 nM
SMILES: CC(C)(C)OC(=O)N1CCC(NC(=O)c2cc3ccc(OC4CCN(c5ccc(C(F)(F)F)cc5)CC4)cc3o2)CC1 [1-82, tert-butyl 4-(6-(1-(4-(trifluoromethyl)phenyl)piperidin-4-yloxy)benzofuran-2-carboxamido)piperidine-1-carboxylate]

- EC50 (compounds of Table 2 (Table 7)): < 500 nM
SMILES: O=C(NC1CCN(Cc2cccnc2)CC1)c1ccc2[nH]c3c(c2c1)CN(Cc1ccc(C(F)(F)F)cc1)CC3 [2-11, N-(1-(pyridin-3-ylmethyl)piperidin-4-yl)-2-(4-(trifluoromethyl)benzyl)-2,3,4,5-tetrahydro-1H-pyrido [4,3-b]indole-8-carboxamide]

- EC50 (compounds of Table 2 (Table 7)): > 100000 nM
SMILES: O=C(NC1CCN(Cc2ccccc2)CC1)c1ccc2[nH]c3c(c2c1)CN(S(=O)(=O)c1ccc(C(F)(F)F)cc1)CC3 [2-19, N-(1-benzylpiperidin-4-yl)-2-(4-(trifluoromethyl)phenylsulfonyl)-2,3,4,5 - tetrahydro-1H-pyrido[4,3-b]indole-8-carboxamide]

- EC50 (compounds of Table 1 (Table 6)): < 100 nM
SMILES: COC(=O)c1ccc(CN2CCC(NC(=O)c3ccc(OC4CCN(c5ccc(C(F)(F)F)cc5)CC4)cn3)CC2)cc1 [1-8, methyl 4-((4-(5-(1-(4-(trifluoromethyl)phenyl)piperidin-4-yloxy)picolinamido)piperidin-1-yl)methyl)benzoate]

- EC50 [1]: < 1000 nM
SMILES: O=C(NC1CCN(Cc2ccccc2)CC1)c1ccc(OC2CCN(Cc3ccc(Cl)cc3)CC2)c(F)c1 [5-64, N-(1-benzylpiperidin-4-yl)-4-(1-(4-chlorobenzyl)piperidin-4-yloxy)-3-fluorobenzamide]

- EC50 (compounds of Table 1 (Table 6)): > 10000 nM
SMILES: O=C(N[C@H]1CCNC1)c1cc2cc(OC3CCN(Cc4ccc(Cl)cc4)CC3)ccc2o1 [1-128, (S)-5-(1-(4-chlorobenzyl)piperidin-4-yloxy)-N-(pyrrolidin-3-yl)benzofuran-2-carboxamide]

- EC50 (compounds of Table 1 (Table 6)): 100 to 500 nM
SMILES: NC(=O)c1ccc(CN2CCC(Oc3ccc4oc(C(=O)NC5CCN(Cc6ccccc6)CC5)cc4c3)CC2)cc1 [1-116, N-(1-benzylpiperidin-4-yl)-5-(1-(4-carbamoylbenzyl)piperidin-4-yloxy)benzofuran-2-carboxamide]

- EC50 (compounds of Table 1 (Table 6)): < 100 nM
SMILES: O=C(NC1CCN(Cc2cccnc2)CC1)c1cc2cc(OC3CCN(c4ccc(C(F)(F)F)cc4)CC3)ccc2o1 [1-101, N-(1-(pyridin-3-ylmethyl)piperidin-4-yl)-5-(1-(4-(trifluoromethyl)phenyl)piperidin-4-yloxy)benzofuran-2-carboxamide]

- EC50 (compounds of Table 1 (Table 6)): 100 to 500 nM
SMILES: O=C(NC1CCNCC1)c1cc2ccc(OC3CCN(c4ccc(OC(F)(F)F)cc4)CC3)cc2o1 [1-83, N-(piperidin-4-yl)-6-(1-(4-(trifluoromethoxy)phenyl)piperidin-4-yloxy)benzofuran-2-carboxamide]

- EC50 (compounds of Table 1 (Table 6)): 100 to 500 nM
SMILES: CN(C(=O)c1cc2cc(OC3CCN(c4ccc(C(F)(F)F)cc4)CC3)ccc2o1)C1CCN(Cc2ccccc2C#N)CC1 [1-111, N-(1-(2-cyanobenzyl)piperidin-4-yl)-N-methyl-5-(1-(4-(trifluoromethyl)phenyl)piperidin-4-yloxy)benzofuran-2-carboxamide]

- EC50 (compounds of Table 3 (Table 8)): < 100 nM
SMILES: O=C(NC1CCN(Cc2ccncc2)CC1)c1cn2ccc(OC3CCN(c4ccc(C(F)(F)F)cc4)CC3)cc2n1 [3-17, N-(1-(pyridin-4-ylmethyl)piperidin-4-yl)-7-(1-(4-(trifluoromethyl)phenyl)piperidin-4-yloxy)imidazo[1,2-a]pyridine-2-carboxamide]

- EC50 (compounds of Table 3 (Table 8)): < 100 nM
SMILES: N#Cc1ccc(C(=O)N2CC3CC2CN3C(=O)c2nc3ccc(OC4CCN(c5ccc(C(F)(F)F)cc5)CC4)cc3o2)cc1 (stereo not shown) [3-12, 4-(5-(6-(1-(4-(trifluoromethyl)phenyl)piperidin-4-yloxy)benzo[d]oxazole-2-carbonyl)-2,5-diazabicyclo[2.2.1]heptane-2-carbonyl)benzonitrile]

- EC50 (compounds of Table 1 (Table 6)): 100 to 500 nM
SMILES: O=C(NC1CCNCC1)c1cc2ccc(OC3CCN(c4ccc(C(F)(F)F)cc4)CC3)cc2s1 [1-141, N-(piperidin-4-yl)-6-(1-(4-(trifluoromethyl)phenyl)piperidin-4-yloxy)benzo[b]thiophene-2-carboxamide]

- EC50 [1]: 50000 to 100000 nM
SMILES: Cn1cncc1CN1CCC(Oc2ccc(C(=O)NC3CCN(Cc4ccccc4)CC3)cc2Cl)CC1 [5-5, N-(1-benzylpiperidin-4-yl)-3-chloro-4-(1-((1-methyl-1H-imidazol-5-yl)methyl)piperidin-4-yloxy)benzamide]

- EC50 (compounds of Table 4 (Table 9)): < 500 nM
SMILES: N#Cc1ccc(CN2CCC(NC(=O)c3ccc(C(=O)N4CCN(Cc5ccc(F)cc5)CC4)cn3)CC2)cc1 [4-2, N-(1-(4-cyanobenzyl)piperidin-4-yl)-5-(4-(4-fluorobenzyl)piperazine-1-carbonyl)picolinamide]

- EC50 (compounds of Table 2 (Table 7)): < 500 nM
SMILES: O=C(NC1CCN(Cc2cocn2)CC1)c1ccc2[nH]c3c(c2c1)CN(Cc1ccc(C(F)(F)F)cc1)CC3 [2-54, N-(1-(oxazol-4-ylmethyl)piperidin-4-yl)-2-(4-(trifluoromethyl)benzyl)-2,3,4,5-tetrahydro-1H-pyrido [4,3-b]indole-8-carboxamide]

- EC50 [1]: 1000 to 10000 nM
SMILES: O=C(NC1CCN(Cc2ccccc2)CC1)c1ccc(OC2CCN(Cc3ccco3)CC2)cc1 [5-3, N-(1-benzylpiperidin-4-yl)-4-(1-(furan-2-ylmethyl)piperidin-4-yloxy)benzamide]

- EC50 [1]: < 1000 nM
SMILES: N#Cc1ccc(CN2CCC(Oc3ccc(C(=O)NC4CCN(Cc5ccc(Cl)cc5)CC4)cc3F)CC2)cc1 [5-70, N-(1-(4-chlorobenzyl)piperidin-4-yl)-4-(1-(4-cyanobenzyl)piperidin-4-yloxy)-3-fluorobenzamide]

- EC50 [1]: 1000 to 10000 nM
SMILES: O=C(NC1CCN(Cc2ccccc2)CC1)c1ccc(OC2CCN(c3ccco3)CC2)c(Cl)c1 [5-11, N-(1-benzylpiperidin-4-yl)-3-chloro-4-(1-(furan-2-yl)piperidin-4-yloxy)benzamide]

- EC50 (compounds of Table 3 (Table 8)): < 100 nM
SMILES: N#Cc1ccc(CN2CCC(NC(=O)c3ccc(C(=O)N4CCN(c5ccc(C(F)(F)F)cn5)CC4)cc3)CC2)cc1 [3-30, N-(1-(4-cyanobenzyl)piperidin-4-yl)-4-(4-(5-(trifluoromethyl)pyridin-2-yl)piperazine-1-carbonyl)benzamide]

- EC50 (compounds of Table 2 (Table 7)): 1000 to 5000 nM
SMILES: N#Cc1cccc(S(=O)(=O)N2CCC(NC(=O)c3ccc4[nH]c5c(c4c3)CN(Cc3ccc(C(F)(F)F)cc3)CC5)CC2)c1 [2-29, N-(1-(3-cyanophenyl-sulfonyl)piperidin-4-yl)-2-(4-(trifluoro-methyl)benzyl)-2,3,4,5-tetrahydro-1H-pyrido[4,3-b]indole-8-carboxamide]

- EC50 (compounds of Table 1 (Table 6)): 1000 to 5000 nM
SMILES: O=C(N[C@H]1CCN(Cc2cccnc2)C1)c1cc2cc(OC3CCN(Cc4ccc(Cl)cc4)CC3)ccc2o1 [1-130, (S)-5-(1-(4-chlorobenzyl)piperidin-4-yloxy)-N-(1-(pyridin-3-ylmethyl)pyrrolidin-3-yl)benzofuran-2-carboxamide]

- EC50 (compounds of Table 3 (Table 8)): 100 to 1000 nM
SMILES: O=C(c1nc2ccc(OC3CCN(c4ccc(C(F)(F)F)cc4)CC3)cc2o1)N1CC2CC1CN2Cc1ccncc1 (stereo not shown) [3-8, (5-(pyridin-4-ylmethyl)-2,5-diazabicyclo[2.2.1]heptan-2-yl)(6-(1-(4-(trifluoromethyl)phenyl)piperidin-4-yloxy)benzo[d]oxazol-2-yl)methanone]

- EC50 [1]: < 1000 nM
SMILES: O=C(NC1CCN(Cc2ccccc2)CC1)c1ccc(OC2CCN(Cc3ccncc3)CC2)c(F)c1 [5-37, N-(1-benzylpiperidin-4-yl)-3-fluoro-4-(1-(pyridin-4-ylmethyl)piperidin-4-yloxy)benzamide]

- EC50 (compounds of Table 2 (Table 7)): 500 to 1000 nM
SMILES: Cn1c2c(c3cc(C(=O)NC4CCN(Cc5ccc(C(F)(F)F)cc5)CC4)ccc31)CN(Cc1ccc(C(F)(F)F)cc1)CC2 [2-17, N-(1-(4-trifluoro-methylbenzyl)piperidin-4-yl)-5-methyl-2-(4-(trifluoromethyl)benzyl)-2,3,4,5-tetrahydro-1H-pyrido[4,3-b]indole-8-carboxamide]

- EC50 (compounds of Table 1 (Table 6)): 100 to 500 nM
SMILES: CC(C)(C)OC(=O)N1CCC(NC2CCc3cc(OC4CCN(c5ccc(C(F)(F)F)cc5)CC4)ccc32)CC1 (stereo not shown) [1-156, tert-butyl 4-(5-(1-(4-(trifluoromethyl)phenyl)piperidin-4-yloxy)-2,3-dihydro-1H-inden-1-ylamino)piperidine-1-carboxylate]

- EC50 [1]: < 1000 nM
SMILES: O=C(NC1CCN(Cc2cccnc2)CC1)c1ccc(OC2CCN(c3ccc(C(F)(F)F)cc3)CC2)c(F)c1 [5-29, 3-fluoro-N-(1-(pyridin-3-ylmethyl)piperidin-4-yl)-4-(1-(4-(trifluoromethyl)phenyl)piperidin-4-yloxy)benzamide]

- EC50 (compounds of Table 1 (Table 6)): 500 to 1000 nM
SMILES: CC(C)(C)OC(=O)N1CCC(NC(=O)c2cc3cc(OC4CCN(c5ccc(C(F)(F)F)cc5)CC4)ccc3o2)CC1 [1-85, tert-butyl 4-(5-(1-(4-(trifluoromethyl)phenyl)piperidin-4-yloxy)benzofuran-2-carboxamido)piperidine-1-carboxylate]

- EC50 (compounds of Table 1 (Table 6)): 100 to 500 nM
SMILES: CN(C)c1ccc(CN2CCC(NC(=O)c3ccc(OC4CCN(c5ccc(C(F)(F)F)cc5)CC4)cn3)CC2)cc1 [1-39, N-(1-(4-(dimethylamino)benzyl)piperidin-4-yl)-5-(1-(4-(trifluoromethyl)phenyl)piperidin-4-yloxy)picolinamide]
